# Measured values as given in patent US20220079855A1, “GINGSENG-BASED COSMETIC COMPOSITION” (L'OREAL, priority 2018, published 2022).
# System: stratum corneum of viable human skin (abdominal or breast reduction plastic surgery)
# Experiment: Desquamating activity: decrease in cohesion of the stratum corneum, histological score on excised human skin maintained under survival conditions
# Type: cell-based
# Conditions: score 0-4; for Score 2: (mean ± sd, n = 6): Table 2, applied D0 and D1, analysed D2; for Score (mean ± sd, n = 6): Table 3 (white ginseng study)
# Protocol: The study aims to detect the desquamating potential of the combination of active agents according to the invention in simplex solution by observation of the cohesion of the stratum corneum.
# The keratolytic effect on excised skin maintained under survival conditions […] was evaluated. The study was carried out on viable human skin resulting from abdominal or breast reduction plastic surgery (6 donors). These skin fragments were placed in inserts, comprising a porous membrane ([…]), themselves positioned on culture wells containing a culture medium as described in Boisnic et al., Journal of Cosmetics and laser therapy, 2010:12:25-31.
# The protocol consists in applying the test solutions to skin samples maintained under survival conditions. The products tested are applied in a proportion of 15 μl per 1 cm^2 sample and are not rinsed off. Application is carried out twice, at D0 and then, 24 hours later, at D1. The morphology of the stratum corneum is analysed 48 hours after the first application, at D2, on a biopsy.
# The solutions applied are the following: • compound A (plant active agent according to the invention) alone at 0.1% and 0.5% by weight of active material in water, and • compound B alone at 0.3% by weight in water • combination of A at 0.1% and B at 0.3% by weight in water • combination of A at 0.5% and B at 0.3% by weight in water.
# By way of comparison, no solution is applied to a sample, referred to as a control sample, and a solution of glycolic acid at 30% by weight in water is applied to another sample. 6 samples were used for each of the tests (controls, compound A and compound B and combinations of A and B).
# The histological analysis of the horny layer is carried out on a skin section after staining with hemalaun-eosin (magnification 400). The decrease in the cohesion of the stratum corneum is expressed in the form of a score: • score 0: absence of modification • score 1: slight decrease • score 2: moderate decrease • score 3: large decrease • score 4: very large decrease with exfoliation
# A paired Student test (p<0.05) was carried out in order to evaluate the significance of the difference with respect to the control.
# The protocol described in Example 2 was reproduced by considering a plant active agent not in accordance with the invention, namely white ginseng which is devoid of ginsenoside Rg3. This active agent considered is the product Ginseng ES, distributed by the company Greentech.
SMILES,"Score 2: (mean ± sd, n = 6) (Compound B at 0.3% in H2O)","Score (mean ± sd, n = 6) (Compound B at 0.3% in H2O)","Score 2: (mean ± sd, n = 6) (Glycolic acid at 30% in H2O)","Score (mean ± sd, n = 6) (Glycolic acid at 30% in H2O)"
"CCCCCCCC(=O)c1ccc(O)c(C(=O)O)c1 [Compound B, 5-n-Octanoylsalicylic acid]",2.14 ± 0.52,1.75 ± 0.19,,
"O=C(O)CO [Glycolic acid, glycolic acid]",,,3.10 ± 0.12,2.14 ± 0.41
